Test results reported in patent publication US20230098332A1, “HETEROCYCLIC DERIVATIVES AS TRMP8 ANTAGONISTS” (Givaudan SA, priority 2020, published 2023).
Counter-ions that a name gives are not always drawn.

Tests used:
[1] = test system: trained group of panelists; test: Sensory studies in aqueous solution (trained panelists, cooling in the mouth); assay type: in vivo, human; conditions: 40 ppm in aqueous solution, 20 mL swilled in the mouth for 60 seconds; for Cooling after 1 hour / Max. cooling: averaged panel score 0-10
Protocol: The compounds as listed below in Table 2 were dissolved at a concentration of 1 wt-% in propylene glycol. These solutions were then dispensed in appropriate quantities into deionized water containing 0.5 wt-% Poloxamer 407 (which is a hydrophilic non-ionic surfactant, e.g., commercially available from SigmaAldrich) and 0.25 wt-% Cremaphor® RH40 (obtained from BASF) as solubilizer, to obtain the desired final concentration of 40 ppm (parts per million) of the respective compound.
A trained group of panelists evaluated the aqueous solutions containing test compound by swilling 20 mL of the solution in the mouth for 60 seconds, followed by spitting, without rinsing the mouth afterwards for the duration of the evaluation. Panelists evaluated and recorded the cooling performance as well as other sensorial and organoleptic attributes at different timepoints over a period of two hours. Cooling performance was rated on a scale from 0 to 10 with 0 being no effect and 10 being freezing. Scores were averaged for all panelists and the cooling intensity qualified as “N” for “none” (score of 0), “L” for “low” (score above 0, up to 1), “M” for “medium” (score above 1, up to 4), “S” for “strong” (score above 4, up to 8) and “E” for “extreme” (score above 8), which are provided in Table 2.

[2] = test system: trained group of panelists; test: Sensory studies in model dentifrice (trained panelists, cooling in the mouth); assay type: in vivo, human; conditions: 100 ppm in model unflavored dentifrice, brushing with 1 g for 60 seconds; for Cooling after 1 hour / Max. cooling: averaged panel score 0-10
Protocol: The compounds listed in Table 3 were dissolved at a concentration of 1 wt-% in propylene glycol. These solutions were then dispersed in appropriate quantities to obtain the desired final concentration of 100 ppm (parts per million) of the test compound into a model, unflavored dentifrice, the formula of which is given below (ingredients obtained from the suppliers respectively indicated in parenthesis).
A trained group of panelists evaluated the dentifrice containing a compound of formula (I), by brushing their teeth with 1 g of the dentifrice using a toothbrush for 60 seconds, followed by spitting, without rinsing the mouth afterwards for the duration of the evaluation. Panelists evaluated and recorded the cooling performance as well as other sensorial and organoleptic attributes at different timepoints over a period of two hours. Cooling performance was rated on a scale from 0 to 10 with 0 being no effect and 10 being freezing. Scores were averaged for all panelists and the cooling intensity qualified as “N” for “none” (score of 0), “L” for “low” (score above 0, up to 1), “M” for “medium” (score above 1, up to 4), “S” for “strong” (score above 4, up to 8) and “E” for “extreme” (score above 8), which are summarized below in Table 3.

hTRPM8 = target: T1, hTRPM8 (Homo sapiens, UniProt Q7Z2W7); test: Assay on TRPM8 modulators: calcium imaging (Fluo-4, Flexstation) in HEK293 cell line stably expressing hTRPM8; assay type: cell-based; conditions: TRPM8 agonist activity, calcium influx, HEK293 stably expressing hTRPM8, sigmoidal dose-response fit
T1 construct: expressed in transfected cells
T1 sequence (Q7Z2W7 whole entry): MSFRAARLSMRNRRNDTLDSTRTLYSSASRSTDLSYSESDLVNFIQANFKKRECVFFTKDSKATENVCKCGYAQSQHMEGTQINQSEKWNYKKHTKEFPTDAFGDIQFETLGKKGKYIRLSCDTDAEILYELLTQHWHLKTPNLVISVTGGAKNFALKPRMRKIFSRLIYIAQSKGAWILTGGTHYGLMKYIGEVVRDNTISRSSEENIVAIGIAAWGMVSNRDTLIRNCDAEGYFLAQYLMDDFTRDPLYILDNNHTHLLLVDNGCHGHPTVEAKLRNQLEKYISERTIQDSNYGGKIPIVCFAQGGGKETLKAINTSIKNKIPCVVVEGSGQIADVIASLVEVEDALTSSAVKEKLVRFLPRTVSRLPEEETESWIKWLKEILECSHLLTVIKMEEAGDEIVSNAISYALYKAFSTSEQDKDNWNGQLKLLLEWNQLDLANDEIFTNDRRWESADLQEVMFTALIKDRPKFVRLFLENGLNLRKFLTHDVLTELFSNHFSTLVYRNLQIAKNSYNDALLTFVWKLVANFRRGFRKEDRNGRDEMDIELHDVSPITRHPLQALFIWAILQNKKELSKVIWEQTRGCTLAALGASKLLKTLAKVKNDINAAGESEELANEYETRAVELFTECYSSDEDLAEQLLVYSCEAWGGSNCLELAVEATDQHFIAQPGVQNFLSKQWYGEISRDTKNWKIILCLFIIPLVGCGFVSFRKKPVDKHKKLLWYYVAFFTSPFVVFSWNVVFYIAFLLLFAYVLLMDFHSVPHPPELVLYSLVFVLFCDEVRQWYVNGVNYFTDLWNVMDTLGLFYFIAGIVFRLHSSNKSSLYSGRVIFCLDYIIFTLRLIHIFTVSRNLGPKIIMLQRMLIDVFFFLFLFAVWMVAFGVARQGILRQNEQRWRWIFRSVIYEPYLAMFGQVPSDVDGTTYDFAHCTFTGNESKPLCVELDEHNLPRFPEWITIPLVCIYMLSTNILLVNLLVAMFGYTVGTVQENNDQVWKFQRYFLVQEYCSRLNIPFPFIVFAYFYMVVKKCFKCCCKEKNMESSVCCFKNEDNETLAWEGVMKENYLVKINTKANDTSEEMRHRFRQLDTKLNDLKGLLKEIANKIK
Protocol: A HEK293 cell line stably expressing hTRPM8 was generated according to Klein et al., (Chem. Senses 36: 649-658, 2011) and receptor activation was monitored by calcium imaging in a Flexstation. For Ca-imaging assays of TRPM8 channel activation, cells were seeded on day 0 at a density of 12000 cells per well in Dulbecco's modified Eagle medium (DMEM) containing 9% foetal bovine serum in black, clear bottom 96-well plates that had been coated with 0.001% polyethyleneimine (molecular weight=60 000, Acros Organics). On day 2, agonists were evaluated via calcium imaging using Fluo-4. Briefly, growth medium was discarded, and the cells were incubated in the dark for 1 h at 37° C. in 50 μL loading buffer consisting of 2.7 μM Fluo-4 AM (Invitrogen) and […] probenecid (Sigma-Aldrich) in DMEM (without serum). After incubation, the plates were washed five times with 100 μL of assay buffer (in mM: 130 NaCl, 5 KCl, 10 HEPES, 2 CaCl2, and 10 glucose, pH7.4.) and further incubated in the dark at room temperature for 30 min. The cells were then washed five times with 100 μL assay buffer and then calcium influx to serial dilutions of inventive compounds were measured in a Flexstation 3 (Molecular Devices). Receptor activation was initiated following addition of 20 μl of a 10-fold concentrated ligand stock solution, which is also prepared in assay buffer. Fluorescence was continuously monitored for 15 seconds prior to ligand addition and for 105 seconds after ligand addition, for a total of 120 seconds. Maximal receptor activation in relation to solvent control and relative to 31.6 μM menthol is determined. Data from serial dilutions were processed with a KNIME workflow to fit a sigmoidal dose-response curve and to extrapolate EC50 values.

Structure (SMILES)	EC50 (hTRPM8) [nM]	Time of max. cooling [1] [min]	Cooling after 1 hour [1]	Max. cooling [1]	Time of max. cooling [2] [min]	Cooling after 1 hour [2]	Max. cooling [2]
Cc1cc(C)c(OCCN2CCN(C)CC2)c(Cc2ccccc2)c1.Cl.Cl [compound 71, 1-(2-(2-benzyl-4,6-dimethylphenoxy)ethyl)-4-methylpiperazine dihydrochloride]		20	M (“M” for “medium” (score above 1, up to 4))	S (“S” for “strong” (score above 4, up to 8))	10	L (“L” for “low” (score above 0, up to 1))	M (“M” for “medium” (score above 1, up to 4))
Cc1ccc(OCCN2CCN(C)CC2)c(Cc2ccccc2)c1.Cl [compound 85, 1-(2-(2-benzyl-4-methylphenoxy)ethyl)-4-methylpiperazine hydrochloride]		20	M (“M” for “medium” (score above 1, up to 4))	S (“S” for “strong” (score above 4, up to 8))	20	L (“L” for “low” (score above 0, up to 1))	L (“L” for “low” (score above 0, up to 1))
Cc1ccc(OCCN2CCN(C)CC2)c(Cc2ccccc2C#N)c1.Cl.Cl [compound 130, 2-(5-methyl-2-(2-(4-methylpiperazin-1-yl)ethoxy)benzyl)benzonitrile dihydrochloride]		30	S (“S” for “strong” (score above 4, up to 8))	S (“S” for “strong” (score above 4, up to 8))	30	M (“M” for “medium” (score above 1, up to 4))	M (“M” for “medium” (score above 1, up to 4))
Cc1cc(C)c(OCCN2CCOCC2)c(Cc2cc(F)c(F)cc2F)c1 [compound 156, 4-(2-(2,4-dimethyl-6-(2,4,5-trifluorobenzyl)phenoxy)ethyl)morpholine]	1000 to 35000						
Cc1ccc(OCCN2CCOCC2)c(Cc2ccccc2)c1.Cl [compound 159, 4-(2-(2-benzyl-4-methylphenoxy)ethyl)morpholine hydrochloride]	1000 to 35000	5	L (“L” for “low” (score above 0, up to 1))	M (“M” for “medium” (score above 1, up to 4))			
Cc1ccc(OCCN2CC[S+]([O-])CC2)c(Cc2ccccc2)c1 [compound 160, 4-(2-(2-benzyl-4-methylphenoxy)ethyl)thiomorpholine 1-oxide]	1000 to 35000						
Cc1ccc(O)c(Cc2cc(C)ccc2OCCN2CCN(C)CC2)c1 [compound 163, 4-methyl-2-(5-methyl-2-(2-(4-methylpiperazin-1-yl)ethoxy)benzyl)phenol]	1000 to 35000						
CCOC(=O)c1ccc(Cc2cc(C)cc(C)c2OCCN2CCN(C)CC2)cc1 [compound 164, ethyl 4-(3,5-dimethyl-2-(2-(4-methylpiperazin-1-yl)ethoxy)benzyl)benzoate dihydrochloride]	1000 to 35000						
COC(=O)c1ccc(OCCN2CCN(C)CC2)c(Cc2ccccc2)c1 [compound 165, methyl 3-benzyl-4-(2-(4-methylpiperazin-1-yl)ethoxy)benzoate]	1000 to 35000						

Now from value to compound, other results behind:

EC50 (hTRPM8) [nM]	Structure (SMILES)	Time of max. cooling [1] [min]	Cooling after 1 hour [1]	Max. cooling [1]	Time of max. cooling [2] [min]	Cooling after 1 hour [2]	Max. cooling [2]
300 to 1000	Cc1ccc(OCCN2CCN(C)CC2)c(Cc2ccccc2)c1 [compound 77, 1-(2-(2-benzyl-4-methylphenoxy)ethyl)-4-methylpiperazine]	10	M (“M” for “medium” (score above 1, up to 4))	M (“M” for “medium” (score above 1, up to 4))			
300 to 1000	Cc1ccc(OC(C)CN2CCN(C)CC2)c(Cc2ccccc2)c1 (stereo not drawn) [compound 90, 1-(2-(2-benzyl-4-methylphenoxy)propyl)-4-methylpiperazine]	10	M (“M” for “medium” (score above 1, up to 4))	M (“M” for “medium” (score above 1, up to 4))			
300 to 1000	Cc1ccc(CCCN2CCN(C)CC2)c(Cc2ccccc2)c1 [compound 100, 1-(3-(2-benzyl-4-methylphenyl)propyl)-4-methylpiperazine]	10	M (“M” for “medium” (score above 1, up to 4))	M (“M” for “medium” (score above 1, up to 4))			
< 50	Cc1cc(C)c(OCCN2CCN(C)CC2)c(Cc2ccccc2C#N)c1.Cl [compound 118, 2-(3,5-dimethyl-2-(2-(4-methylpiperazin-1-yl)ethoxy)benzyl)benzonitrile hydrochloride]	20	S (“S” for “strong” (score above 4, up to 8))	S (“S” for “strong” (score above 4, up to 8))	30	M (“M” for “medium” (score above 1, up to 4))	M (“M” for “medium” (score above 1, up to 4))
50 to 300	Cc1cc(C)c(OCCC2CCOCC2)c(Cc2ccccc2C#N)c1 [compound 119, 2-(3,5-dimethyl-2-(2-(tetrahydro-2H-pyran-4-yl)ethoxy)benzyl)benzonitrile]	10	L (“L” for “low” (score above 0, up to 1))	M (“M” for “medium” (score above 1, up to 4))			
< 50	Cc1cc(C)c(OCCN2CCOCC2)c(Cc2ccccc2C#N)c1 [compound 122, 2-(3,5-dimethyl-2-(2-morpholinoethoxy)benzyl)benzonitrile]	10	M (“M” for “medium” (score above 1, up to 4))	S (“S” for “strong” (score above 4, up to 8))	10	M (“M” for “medium” (score above 1, up to 4))	S (“S” for “strong” (score above 4, up to 8))
300 to 1000	Cc1cc(C)c(OCCN2CCOCC2)c(Cc2cc(F)cc(F)c2)c1 [compound 154, 4-(2-(2-(3,5-difluorobenzyl)-4,6-dimethylphenoxy)ethyl)morpholine]						
1000 to 35000	Cc1cc(C)c(OCCN2CCOCC2)cc1Cc1c(F)c(F)c(F)c(F)c1F [compound 155, 4-(2-(2,4-dimethyl-5-((perfluorophenyl)methyl)phenoxy)ethyl)morpholine]						
300 to 1000	Cc1cc(C)c(OCCN2CCOCC2)c(Cc2ccccc2[N+](=O)[O-])c1 [compound 157, 4-(2-(2,4-dimethyl-6-(2-nitrobenzyl)phenoxy)ethyl)morpholine]						
300 to 1000	Cc1ccc(OCCN2CC(C)N(C)C(C)C2)c(Cc2ccccc2)c1 (stereo not drawn) [compound 158, 4-(2-(2-benzyl-4-methylphenoxy)ethyl)-1,2,6-trimethylpiperazine]	30	M (“M” for “medium” (score above 1, up to 4))	M (“M” for “medium” (score above 1, up to 4))			
50 to 300	CCc1cc(C)cc(Cc2ccccc2F)c1OCCN1CCOCC1 [compound 161, 4-(2-(2-ethyl-6-(2-fluorobenzyl)-4-methylphenoxy)ethyl)morpholine]						
< 50	Cc1cc(C)c(CCCN2CCOCC2)c(Oc2ccccc2F)c1 [compound 162, 4-(3-(2-(2-fluorophenoxy)-4,6-dimethylphenyl)propyl)morpholine]						
